Experimental findings from BindingDB's records for doi:10.1016/j.bmcl.2006.12.054 (Cephalon, 2007) are described below.

In the experiment the target is Vascular endothelial growth factor receptor 2 (Homo sapiens, UniProt P35968). In words: Inhibition of human cytoplasmic VEGFR2 expressed in baculovirus after 15 mins by time resolved fluorescence assay.
Sequence of Vascular endothelial growth factor receptor 2 (P35968 whole entry): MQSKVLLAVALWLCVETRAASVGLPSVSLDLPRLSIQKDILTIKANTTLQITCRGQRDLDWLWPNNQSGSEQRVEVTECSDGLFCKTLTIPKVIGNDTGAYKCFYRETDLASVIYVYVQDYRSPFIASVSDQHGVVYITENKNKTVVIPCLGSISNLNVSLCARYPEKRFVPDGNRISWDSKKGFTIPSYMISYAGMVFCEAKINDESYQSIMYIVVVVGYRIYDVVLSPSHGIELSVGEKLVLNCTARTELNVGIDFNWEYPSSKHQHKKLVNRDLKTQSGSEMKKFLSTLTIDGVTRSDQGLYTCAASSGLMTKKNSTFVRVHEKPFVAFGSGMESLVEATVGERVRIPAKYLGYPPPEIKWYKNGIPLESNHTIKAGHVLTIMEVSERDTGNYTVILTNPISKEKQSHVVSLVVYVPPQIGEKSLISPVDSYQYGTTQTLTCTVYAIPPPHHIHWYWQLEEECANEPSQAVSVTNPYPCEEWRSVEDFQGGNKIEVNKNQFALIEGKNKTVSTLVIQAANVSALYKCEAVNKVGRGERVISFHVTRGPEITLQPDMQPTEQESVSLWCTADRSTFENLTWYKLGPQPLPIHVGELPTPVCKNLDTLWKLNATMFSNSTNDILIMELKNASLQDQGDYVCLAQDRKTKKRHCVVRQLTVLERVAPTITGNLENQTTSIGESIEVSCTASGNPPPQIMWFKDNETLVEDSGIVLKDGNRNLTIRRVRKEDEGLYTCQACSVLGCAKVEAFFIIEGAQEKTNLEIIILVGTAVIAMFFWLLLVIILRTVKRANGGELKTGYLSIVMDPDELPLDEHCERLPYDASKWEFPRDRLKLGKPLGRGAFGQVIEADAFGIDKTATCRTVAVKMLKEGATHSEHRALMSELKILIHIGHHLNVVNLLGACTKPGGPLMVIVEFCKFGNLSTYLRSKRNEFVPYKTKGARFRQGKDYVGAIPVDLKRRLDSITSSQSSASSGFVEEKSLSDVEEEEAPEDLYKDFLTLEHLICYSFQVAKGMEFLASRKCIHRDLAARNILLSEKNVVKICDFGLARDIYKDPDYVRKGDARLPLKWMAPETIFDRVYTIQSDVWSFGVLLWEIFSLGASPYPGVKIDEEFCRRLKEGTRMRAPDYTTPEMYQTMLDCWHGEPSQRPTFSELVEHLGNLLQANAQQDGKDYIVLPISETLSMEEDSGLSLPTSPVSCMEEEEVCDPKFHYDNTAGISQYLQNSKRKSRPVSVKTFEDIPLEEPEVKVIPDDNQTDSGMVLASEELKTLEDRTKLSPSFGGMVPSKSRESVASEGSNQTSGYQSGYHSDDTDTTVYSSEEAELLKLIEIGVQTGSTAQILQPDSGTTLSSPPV

A word on the IC50: it is the concentration that inhibits the measured activity by half. Read a low IC50 as higher potency. In turn, `C=c1nns/c1=c1\[nH][nH]c(=O)c1=Cc1cn(C)c2ccc(C#N)cc12` [1-methyl-3-((3-(4-methyl-1,2,3-thiadiazol-5-yl)-5-oxo-1H-pyrazol-4(5H)-ylidene)methyl)-1H-indole-5-carbonitrile] yielded a 50% inhibitory concentration (IC50) of over 300 nM.

`C=c1nns/c1=c1\[nH][nH]c(=O)c1=Cc1c[nH]c2ccc(Cl)cc12` [4-((5-chloro-1H-indol-3-yl)methylene)-3-(4-methyl-1,2,3-thiadiazol-5-yl)-1H-pyrazol-5(4H)-one] showed an IC50 of over 300 nM.
